Where a name gives a salt, the structure may show the parent alone.
Experiments:
Format in all cases: physicochemical
[1] = Hygroscopicity evaluation by DVS of salts of I-18; conditions: 25° C., judged from uptake at 80% RH
Method: To investigate the solid form stability as a function of humidity, DVS isotherm plot of the K salt, Arginine salt, Choline salt and Tris salt were collected at 25° C. between 0 and 95% RH.

[2] = Physical and chemical stability of salts of I-18, 1 week (XRPD, HPLC purity); conditions: for Area (%) of HPLC peak RRT 1.00: main peak; for Area (%) of HPLC peak RRT 1.17: peak = parent compound formed by hydrolysis; for Form change: XRPD
Method: The physical and chemical stability of the K salt, Arginine salt, Choline salt and Tris salt were evaluated under conditions of 25° C./60% RH and 40° C./75% RH for 1 week. Each sample was added into 3 mL glass vials, sealed by parafilm with several holes, and kept under tested condition. After one week, samples was taken for XRPD and HPLC purity test.

[3] = DVS isotherm, spray-dried formulation versus crystalline compound I-1; conditions: DVS at 25° C.; crystalline compound I-1 compared with the spray-dried dispersion
Method: (§1) FIG. 1 is a dynamic vapor sorption (DVS) plot of percent change in mass versus target relative humidity (RH), illustrating the change in mass of one embodiment of the disclosed spray-dried formulation at 25° C. under various relative humidity conditions. The plot provides two isotherms: 1 is the sorption plot, illustrating the change in mass with increasing relative humidity steps; and 2 is the desorption plot, illustrating the change in mass with decreasing relative humidity steps.
as §1, with “FIG. 6” for “FIG. 1”, “a DVS” for “a dynamic vapor sorption (DVS)”, “relative humidity,” for “relative humidity (RH),”, “of a crystalline sample of compound I-1” for “of the disclosed spray-dried formulation”
FIGS. 1-10 provide structural and stability data concerning the spray-dried formulation (FIGS. 1-5) and a crystalline sample of compound I-1 (FIGS. 6-10). FIGS. 1 and 6 provide DVS isotherm plots for the spray-dried formulation and crystalline compound, respectively.

[4] = Modulated DSC glass transition temperature; conditions: mDSC, reversing heat flow versus temperature
Method: FIG. 5 is a modulated DSC (mDSC) plot of reversing heat flow versus temperature, illustrating the heat flow for one embodiment of the spray-dried formulation and showing that the glass transition temperature (Tg) for that embodiment is 108.3° C.
FIG. 10 is an mDSC plot of reversing heat flow versus temperature, illustrating the heat flow for a […] sample of compound I-1, and showing that the glass transition temperature (Tg) for the […] sample is 106.1° C.

[5] = 25° C./60% RH, 1 week, listed as arginine salt
[6] = 40° C./75% RH, 1 week, listed as arginine salt
[7] = Initial, listed as arginine salt

CCO[C@H]1CC[C@H](n2cc(NC(=O)c3csc(-c4cnn(C(C)OP(=O)(O)O)c4)n3)c(-c3nc(F)ccc3F)n2)CC1 (some centres unmarked) [I-110, 1-(4-(4-((3-(3,6-difluoropyridin-2-yl)-1-((1r,4r)-4-ethoxycyclohexyl)-1H-pyrazol-4-yl)carbamoyl)thiazol-2-yl)-1H-pyrazol-1-yl)ethyl dihydrogen phosphate arginine salt]
hygroscopicity [1]: slight hygroscopic | Area (%) of HPLC peak RRT 1.13 ([2]; 25° C./60% RH, 1 week): 0.06% | Area (%) of HPLC peak RRT 0.77 [2, 5]: 0.03% | Area (%) of HPLC peak RRT 1.35 [2, 5]: 0.06% | Area (%) of HPLC peak RRT 1.45 [2, 5]: 0.50% | Area (%) of HPLC peak RRT 1.71 [2, 5]: 0.74% | Area (%) of HPLC peak RRT 1.73 [2, 5]: 0.61% | HPLC purity change [2, 5]: slight purity decrease | Area (%) of HPLC peak RRT 1.00 [2, 5]: 95.31% | Area (%) of HPLC peak RRT 1.17 [2, 5]: 2.68% | Form change ([2]; 25° C./60% RH/1 week, listed as Arginine salt): no form change and No | Area (%) of HPLC peak RRT 1.13 ([2]; 40° C./75% RH, 1 week): 0.06% | Area (%) of HPLC peak RRT 0.77 [2, 6]: 0.04% | Area (%) of HPLC peak RRT 1.35 [2, 6]: 0.11% | Area (%) of HPLC peak RRT 1.45 [2, 6]: 0.47% | Area (%) of HPLC peak RRT 1.71 [2, 6]: 0.73% | Area (%) of HPLC peak RRT 1.73 [2, 6]: 0.60% | HPLC purity change [2, 6]: slight purity decrease | Area (%) of HPLC peak RRT 1.00 [2, 6]: 95.50% | Area (%) of HPLC peak RRT 1.17 [2, 6]: 2.48% | Form change ([2]; 40° C./75% RH/1 week, listed as Arginine salt): no form change and No | Initial purity (area %) ([2]; HPLC, before storage, listed as Arginine salt): 95.91 area % | Area (%) of HPLC peak RRT 1.35 ([2]; Initial): <0.03% | Area (%) of HPLC peak RRT 0.77 [2, 7]: <0.03% | Area (%) of HPLC peak RRT 1.13 [2, 7]: <0.03% | Area (%) of HPLC peak RRT 1.45 [2, 7]: 0.44% | Area (%) of HPLC peak RRT 1.71 [2, 7]: 0.73% | Area (%) of HPLC peak RRT 1.73 [2, 7]: <0.53% | Area (%) of HPLC peak RRT 1.00 [2, 7]: 95.91% | Area (%) of HPLC peak RRT 1.17 [2, 7]: 2.39%

CCO[C@H]1CC[C@H](n2cc(NC(=O)c3csc(-c4cn[nH]c4)n3)c(-c3nc(F)ccc3F)n2)CC1 [I-1, N-(3-(3,6-difluoropyridin-2-yl)-1-((1r,4r)-4-ethoxycyclohexyl)-1H-pyrazol-4-yl)-2-(1H-pyrazol-4-yl)thiazole-4-carboxamide]
change in mass when exposed to higher relative humidity [3]: substantially smaller change in mass | glass transition temperature (Tg) [4]: 106.1 °C

— patent US12441723B2, “Pyrazole compounds, formulations thereof, and a method for using the compounds and/or formulations” (Rigel Pharmaceuticals, Inc., priority 2019, dated 2025)
